The values that follow come from patent publication US20090298708A1, “2'-DEOXY-2'-FLUORO-BETA-D-ARABINONUCLEOSIDE 5'-TRIPHOSPHATES AND THEIR USE IN ENZYMATIC NUCLEIC ACID SYNTHESIS” (priority 2006, published 2009).

Data set [1] addresses T1, DV DNA polymerase (Pyrococcus sp., UniProt Q51334, D141A/DEL493-1029/E143A).
T1 construct: purchased New England Biolabs; host or cells: E. coli
Briefly: Dropout assay, fidelity of incorporation by DV. The data set is classed as biochemical, Pyrococcus species GB-D. The following applies: 30 min reaction time, 25 μM triphosphates, 55° C., template A: PF41, G: PF43, T: PF21, C: PF23. The method, then: (§1) FIG. 11A illustrates the fidelity of 2′F-araATP incorporation on a DNA template PF41 by DV and 9N DNA polymerases. Reaction conditions: 0.8 unit DV and 9N, 25 μM triphosphates at 55° C. in 30 μL reaction volume; incubation time: 30 min. Group 1 & 5: dNTPs; 2 & 6: dropout of dATP; 3 & 7: 2′F-araNTPs, 4 & 8: dropout of 2′F-araATP; 27mer control DNA is PF39.
(§2) FIG. 11B illustrates the fidelity of 2′F-araGTP incorporation on DNA template PF43 by DV and 9N DNA polymerases. Reaction conditions: primer/template (1:1 molar ratio): 100 nM; 0.4 μL (0.8 unit) DV, 9N, 25 μM triphosphate concentration at 55° C. in 30 μL reaction volume. Reaction time for dNTPs (group 1, 5) was 30 min and others were shown above. Group 1 & 5: dNTPs; 2 & 6: drop out dGTP (i.e. dTTP, dCTP and dATP), 3 & 7: 2TF-araNTPs, 4 & 8: drop out 2′F-araGTP; lane P is the template PF41 as the full-length product control; PF39 is a 27-nt DNA control. All samples were analyzed by 12% denaturing PAGE.
(§3) FIG. 12A illustrates the fidelity of 2′F-araTTP incorporation by DV and 9N DNA polymerases on a DNA template PF21. Reaction conditions: 100 nM primer/template (1:1 molar ratio); 0.4 μL (0.8 unit) DV or 9N, 25 μM triphosphate concentration at 55° C. in 30 μL reaction volume. Reaction time for dNTPs (group 1, 5) was 30 min and others were shown above. Groups 1 & 5: dNTPs; 2 & 6: drop out dTTP; 3 & 7: 2′F-araNTPs; 4 & 8: drop out 2′F-araTTPs. in B: group 1 & 5: dNTPs; 2 & 6: drop out dCTP; 3 & 7: 2′F-araNTPs; 4 & 8: drop out 2′F-araCTPs; PF39 is a 27-nt DNA control. All samples were analyzed by 12% denaturing PAGE.
(§4) FIG. 12B illustrates the fidelity study of 2′F-araCTP incorporation by DV and 9N DNA polymerases on a DNA template PF23. Reaction conditions: 100 nM primer/template (1:1 molar ratio); 0.4 μL (0.8 unit) DV or 9N, 25 μM triphosphate concentration at 55° C. in 30 μL reaction volume. Reaction time for dNTPs (groups 1, 5) was 30 min and others were shown above. Groups 1 & 5: dNTPs; 2 & 6: drop out dCTP; 3 & 7: 2′F-araNTPs; 4 & 8: drop out 2′F-araCTPs; PF39 is a 27-nt DNA control. All samples were analyzed by 12% denaturing PAGE.
(§5) “Dropout assays” (Ichida et al. (2005) J. Am. Chem. Soc. 127:2802-2803) were conducted to assess the fidelity of 2′F-araNTP incorporation (each of 2′F-araATP, 2′F-araCTP, 2′F-araGTP and 2′F-araTTP) by various DNA polymerases (FIGS. 11-14). For example, the 2′F-araNTP of interest is removed from the pool, and the ensuing synthesis on DNA template (e.g. PF21, PF23, PF41, PF43) assessed in comparison with a control reaction containing all four 2′F-araNTPs. For comparison, dropout experiments containing dNTPs are run in parallel. Full-length DNA and FANA products are obtained when all four dNTPs (group 1 and 5) and 2′F-araNTPs (groups 3 and 7) were available, however, some pausing may occur during synthesis of the arabinose modified oligomers. Apparent fidelity was calculated according to the equation:
(§6) 1−[(% full-length−2′F-araNTP)/(% full-length+2′F-araNTP)]
(§7) at 30 min reaction time (sample equation for dNTP values). >99% means that the full-length product was not detectable in our dropout assays.
(§8) “Dropout assays” (Ichida et al. (2005) J. Am. Chem. Soc. 127:2802-2803) were conducted to assess apparent fidelity of 2′F-araNTP incorporation by DV and 9N. In one of these assays, 2′F-araATP was removed from the pool, and the ensuing synthesis assessed in comparison with a control reaction containing all four 2′F-araNTPs. For comparison, dropout experiments containing dNTPs were run in parallel (FIGS. 11-14). Full-length DNA and FANA products were obtained when all four dNTPs (group 1 and 5) and 2′F-araNTPs (groups 3 and 7) were available, although some pausing was evident during synthesis of the arabinose modified oligomers.

In data set [2] the target is T2, 9N DNA polymerase (Thermococcus sp., UniProt Q56366, E143D).
T2 construct: purchased New England Biolabs; host or cells: E. coli
Briefly: Dropout assay, fidelity of incorporation by 9N. The settings on record: 30 min reaction time, 25 μM triphosphates, 55° C., template A: PF41, G: PF43, T: PF21, C: PF23. The data set is classed as biochemical, Thermococcus species (strain 9° N-7). How it is done:
as §1, §2, §3, §4, §5, §6, §7, §8

The subject of data set [3] is Phusion DNA polymerase (Ph). Briefly: Dropout assay, fidelity of incorporation by Ph. The data set is classed as biochemical. The following applies: 30 min reaction time, 55° C., templates PF21, PF41.
From the text: FIG. 13 illustrates the fidelity of 2′F-araNTP incorporation on pyrimidine rich DNA template PF21 by Ph DNA polymerase. […] Template PF41 and primer PF20 are shown; PF39 is a 27-nt DNA control.
FIG. 14 illustrates the fidelity of 2′F-araNTP incorporation on purine rich DNA template PF41 by Ph DNA polymerase. The base sequence of the primer, DNA template and resulting terminated products in different dropout conditions (condition 1-5) is shown. […] Lane 1: dNTPs; 2: drop out dCTP (i.e. dATP, dGTP and dTTP, shorten as AGT, same coding for lanes 3-5), lane 6: 2′F-araNTPs; 7: drop out 2′F-araCTP (i.e. 2′F-araATP, 2′F-araGTP, 2′F-araTTP, shorten as AGT; same coding for lanes 8-10). The template PF41 and the primer PF20 are shown; PF39 is a 27mer DNA control.
For example, the 2′F-araNTP of interest is removed from the pool, and the ensuing synthesis on DNA template (e.g. PF21, PF23, PF41, PF43) assessed in comparison with a control reaction containing all four 2′F-araNTPs. For comparison, dropout experiments containing dNTPs are run in parallel. […] Apparent fidelity was calculated according to the equation:
as §6
In one of these assays, 2′F-araATP was removed from the pool, and the ensuing synthesis assessed in comparison with a control reaction containing all four 2′F-araNTPs. For comparison, dropout experiments containing dNTPs were run in parallel (FIGS. 11-14).
Phusion DNA polymerase (Ph) was evaluated for fidelity of 2′F-araNTP incorporation using the same dropout assay. All four dropout experiments were conducted with the same DNA template PF21 (FIG. 13), or PF41 (FIG. 14).

For data set [4], the target named is T3, HIV-1 RT (recombinant) (Human immunodeficiency virus type 1 group M subtype B, UniProt P04585).
T3 construct: Reverse transcriptases (RT): • MMLV-RT (MMLV or MM; source: Fermentas); • HIV-1 RT (recombinant); purchased Worthington Biochemical Corp
Kind of data set: Primer extension assay with HIV-1 RT. The data set is classed as biochemical. The settings on record: 37° C., DNA template PF22 (T/U triphosphates) or PF24 (C triphosphates), three contiguous units. The text has this: (§9) Primer extension assays were used to assess the incorporation of 2′F-araNTP on the various DNA templates (Table 1). The DNA primer (PF20) was first radioactively labeled at the 5′-hydroxyl terminus with a radioactive phosphorus probe and the enzyme T4 polynucleotide kinase (T4 PNK) (see Example 1 for General Methods). To assess the incorporation of 2′F-araNTPs, the primer and template were annealed, and the nucleoside 5′-triphosphates added in the presence of enzyme under the conditions specified in Table 2. Time points were obtained by analyzing small aliquots from the reaction mixture through polyacryamide gel electrophoresis (PAGE) and autoradiography.
(§10) Primer extension assays were used to assess the incorporation efficiency of contiguous 2′F-ara(T/C)TPs compared to 2′F-r(U/C)TP on a DNA template (e.g. PF22 or PF24). To this end, a DNA template (e.g. PF22: FIGS. 15, 16, 17A, 18, 21A; PF24: FIGS. 17B, 19, 20, 21B), primer and the appropriate NTPs (e.g. combination of dATP/dCTP/dGTP/ and NTP, where N=dT, 2′F-araT, 2′F-rU, or rU (FIGS. 15, 16, 17A, 18, 21A); or combination of dATP/dGTP/dTTP/ and NTP, where N=dC, 2′F-araC, 2′F-rC, or rC (FIGS. 17B, 19, 20, 21B)), were incubated in the presence one of MMLV-RT, 9N, HIV or DV polymerase. The protocols and conditions are described in Example 2 and Table 2.
(§11) Unless otherwise noticed in the Examples described below, the conditions used in the primer extension assays, such as dNTP concentration, reaction temperatures, concentration of Mg^2+, and reaction buffers (provided by the manufacturers, except for the HIV buffer which was prepared in-house) are shown in Table 2.
(§12) Primer extension assays were used to assess the incorporation of 2′F-araTTP on the DNA template (PF22). The DNA primer (PF20) was first radioactively labeled at the 5′-hydroxyl terminus with a radioactive phosphorus probe and the enzyme T4 polynucleotide kinase (T4 PNK) according to the manufacturer's specifications (MBI Fermentas Life Sciences, Burlington, ON). Incorporation of the ^32P label was accomplished in reaction mixtures consisting of DNA substrate (200 pmol), 2 μl loxreaction buffer (Buffer A for forward reaction: 500 mM Tris-HCl, pH 7.6 at 25° C., 100 mM MgCl2, 50 mM DTT, 1 mM spermidine and 1 mM EDTA), 1 μl T4 PNK enzyme solution (10 U/1 μl in a solution of 20 mM Tris-HCl, pH 7.5, 25 mM KCl, 0.1 mM EDTA, 2 mM DTT and 50% glycerol), 6 μl [γ-^32P]-ATP solution (6000 Ci/mmol, 10 mCi/ml; Amersham Biosciences, Inc.) and autoclaved sterile water to a final volume of 20 μl. The reaction mixture was incubated for about 45-60 min at 37° C., followed by a second incubation for 10 min at 95° C. to heat denature and deactivate the kinase enzyme. The solution was purified according to a standard protocol and the isolated yield of 5′-^32P-DNA following gel extraction averages 50%. The pure labeled samples were kept at −20° C. for future use.
(§13) Usually 2 or 3 folds of cold (unlabeled) DNA primer were combined with the radioactive primer. Then primer to template was mixed together with the final concentration at 85 nM for the primer and 255 nM for the template (i.e. the primer:template=1:3 molar ratio). The primer and template were heated at 95° C. for 5 min and annealed at 4° C. for at least two hours before use. In an Eppendorf tube, the following reagents, 5× or 10× buffer, nucleoside 5′-triphosphates (DATP, dGTP, dCTP, 2′F-araTTP at the same concentrations; see legend of FIG. 2), water, the primer and template mixture, were added together according to pre-calculated reaction volume (20 μL) and concentrations (see reaction conditions in Table 2). Mineral oil (20 μL) was usually used to prevent evaporation. The reaction mixture was incubated at either 37° C. or 55° C. and one of the various enzymes tested was added to initiate the primer extension reactions. […]

Data set [5] has as its system DNA polymerases. Briefly: Primer extension assays, statement for all enzymes studied. Format: biochemical. The settings on record: DNA template PF24; 9N, HIV, MMLV, DV.
In data set [6] the target is T4, MMLV-RT (Moloney murine leukemia virus, UniProt P03355).
T4 construct: Reverse transcriptases (RT): • MMLV-RT (MMLV or MM; source: Fermentas); purchased Fermentas
Briefly: Primer extension assay with MMLV-RT. Format: biochemical. The following applies: MMLV-RT; 37° C.; DNA template PF22 (T/U triphosphates) or PF24 (C triphosphates); three contiguous units.
From the text: as §9, §10, §11, §12, §13

Data set [7] concerns the target Phusion High-Fidelity DNA polymerase (Ph) (UniProt P61875). The following applies: apparent fidelity, all 2'F-araNTP and dNTP dropouts; 55 C.

Regarding `Nc1ncnc2c1ncn2[C@H]1C[C@H](O)[C@@H](COP(=O)(O)OP(=O)(O)OP(=O)(O)O)O1` [dATP], the “% Apparent Fidelity, dNTP” value in data set [1] is recorded as 1%; in data set [2] it was 80%; in data set [3], over 99%.

Take `Nc1nc2c(ncn2[C@H]2C[C@H](O)[C@@H](COP(=O)(O)OP(=O)(O)OP(=O)(O)O)O2)c(=O)[nH]1` [dGTP]: the “% Apparent Fidelity, dNTP” value in data set [1] was 62%; in data set [2], 84%; in data set [3], over 99%.

With `Nc1ccn([C@@H]2O[C@H](COP(=O)(O)OP(=O)(O)OP(=O)(O)O)[C@@H](O)[C@H]2O)c(=O)n1` [rCTP, reference compound], the “Order of efficiency of incorporation” value in data set [4] and in data set [6] was “dCTP~2′F-rCTP ≧ 2′F-araCTP > CTP” each time. Besides, the “order of incorporation efficiency” value in data set [5] was “dCTP=2′F-rCTP>2′F-araCTP >>rCTP”.

Turning to `O=c1ccn([C@@H]2O[C@H](COP(=O)(O)OP(=O)(O)OP(=O)(O)O)[C@@H](O)[C@H]2O)c(=O)[nH]1` [rUTP, reference compound], the “Order of efficiency of incorporation” value in data set [4] and in data set [6] was “dTTP > 2′F-araTTP > 2′F-rUTP > UTP” in each case.

As to “TAATACGACTCACTATA / AGAGCCTGAGAAGAGAGTATAGTGAGTCGTATTA [PF20/PF41 primer-template]”, in data set [7], the activity was over 99%.

For “TAATACGACTCACTATA / TTTGCCACTCTTCTCCCTATAGTGAGTCGTATTA [PF20/PF21 primer-template]”, in data set [7], the activity is over 99%.
